According to ChEMBL document CHEMBL2380220, “Cytotoxic azaphilone alkaloids from Chaetomium globosum TY1” (Bioorg Med Chem Lett, 2013):

Each molecule was assayed on HepG2 (assay: Cytotoxicity against human HepG2 cells after 72 hrs by SRB assay). Settings: HepG2, 72 h.
Format: functional, cell-based

`CC[C@H](C)/C=C/C1=CC2=C(Cl)C(=O)[C@@]3(C)OC(=O)C(C(=O)[C@H](C)[C@@H](C)O)=C3C2=CO1` was tested. Which IC50 did it give?
The IC50 was 35.3 µM.

With `C/C=C(\C)C(=O)C1=C2C3=COC(/C=C/[C@@H](C)CC)=CC3=C(Cl)C(=O)[C@@]2(C)OC1=O` [CHAETOVIRIDIN E] as the molecule, how does the IC50 read?
The IC50 was 40.6 µM.

Which IC50 does the source give for `C/C=C(\C)C(=O)C1=C2C3=CN(CCO)C(/C=C/[C@@H](C)CC)=CC3=C(Cl)C(=O)[C@@]2(C)OC1=O` here?
The IC50 was 19.8 µM.

Which IC50 does the source give for `CC[C@H](C)/C=C/C1=CC2=C(Cl)C(=O)[C@@]3(C)OC(=O)C(C(=O)[C@H](C)[C@@H](C)O)=C3C2=CN1CCO` here?
The IC50 was 53.4 µM.

For `C/C=C(\C)C(=O)C1=C2C3=CN(CCCC(=O)O)C(/C=C/[C@@H](C)CC)=CC3=C(Cl)C(=O)[C@@]2(C)OC1=O`, which IC50 is on record?
Its IC50 is 1.7 µM.

`CC[C@H](C)/C=C/C1=CC2=C(Cl)C(=O)[C@@]3(C)OC4(O)C(C(=O)O[C@@H](C)[C@@H]4C)C3C2=CO1` (some centres not stated) was tested. Which IC50 did it give?
The IC50 was greater than 100 µM.

For `CC[C@@]1(O)C(=O)OCc2c1cc1n(c2=O)Cc2cc3ccccc3nc2-1` [CAMPTOTHECIN], which IC50 is on record?
The IC50 was 32.3 µM.
